# Measurements as given in patent EP3375430A1, “FRAGRANCE COMPOSITIONS” (Takasago International Corporation, priority 2017, dated 2018).
# Assay: Amount of fragrance ingredients retained on paper blotter after evaporation (ethanol extraction, GC-MS)
# Type: physicochemical
# Description: A fragrance (hereafter fragrance TAK, the formulation of which is shown in table 1) was formulated in a typical Eau de Toilette (EdT1) or in fragrance compositions according to the invention (compositions C1 to C4), as shown in table 2. The amount of individual fragrance ingredients retained on paper substrate (blotter) after set time periods was assessed by the following method.
# 100µL samples of either EdT1 or compositions C1 to C4 were applied to 4.5cm long standard paper blotters with a microsyringe. Three replicate blotters were prepared for each extraction time. After the appropriate evaporation time each of the 3 blotters was transferred to a 30mL glass bottle. 3mL of ethanol and 50µL of a 1% solution of methyl decanoate in ethanol as an internal standard were added. The bottle was sealed and placed on a roller bed to extract the blotter for 1 hour. A sample of the extracting solution was transferred to a vial which was sealed and analysed by gas chromatography (GC 6890) with a Mass Spectrometer detector (MS 5973) using the method described below. The results of the three replicate measurements were averaged. At exact times the same extraction was repeated on the remaining blotters which were stored on a warm surface at 32°C open to the air to allow evaporation. The gas chromatography conditions were as given below.
# • Initial Temp: 50°C • Initial Time: 2 min • Rate: 10°C /min • Final Temp: 280°C • Final Time: 5 min • Run Time: 30 min
# • Column: HP-5MS 30m * 0.25mm * 0.25µm • Gas: Helium • Constant Pressure 18.55 psi
# • Split mode Ratio 40:1 • Inlet Temp: 250°C
# • MS 5973 • Mass range: 35 to 350 • Threshold: 100 • Mass Quad: 150°C • Mass Source: 230°C
# To simplify the results the average amount of each fragrance ingredient from the 3 samples measured at time zero was set at 100% and all other measurements were then related to that value so tables 3 to 6 show decreasing amounts of fragrance ingredients as a percentage of the initial amount.
# The method of example 1 was repeated using a commercial fragrance (hereafter fragrance COM1, the formulation of which is given in table 7) formulated in a typical Eau de Toilette (EdT2) or in fragrance compositions according to the invention (compositions C5 and C6), as shown in table 8.
smiles,measurement,setting,value
O=C1CCCCCCCCCCCC(=O)OCCO1 [Ethylene Brassylate],amount of fragrance ingredient retained on blotter (percentage of the initial amount),"Table 3, fragrance TAK in C1, 15 min, 32°C",81%
same,amount of fragrance ingredient retained on blotter (percentage of the initial amount),"Table 3, fragrance TAK in C1, 60 min, 32°C",79%
same,amount of fragrance ingredient retained on blotter (percentage of the initial amount),"Table 3, fragrance TAK in C1, 120 min, 32°C",81%
same,amount of fragrance ingredient retained on blotter (percentage of the initial amount),"Table 3, fragrance TAK in C1, 240 min, 32°C",86%
same,amount of fragrance ingredient retained on blotter (percentage of the initial amount),"Table 3, fragrance TAK in C1, 480 min, 32°C",79%
same,amount of fragrance ingredient retained on blotter (percentage of the initial amount),"Table 3, fragrance TAK in EdT1, 15 min, 32°C",88%
same,amount of fragrance ingredient retained on blotter (percentage of the initial amount),"Table 3, fragrance TAK in EdT1, 60 min, 32°C",85%
same,amount of fragrance ingredient retained on blotter (percentage of the initial amount),"Table 3, fragrance TAK in EdT1, 120 min, 32°C",90%
same,amount of fragrance ingredient retained on blotter (percentage of the initial amount),"Table 3, fragrance TAK in EdT1, 240 min, 32°C",98%
same,amount of fragrance ingredient retained on blotter (percentage of the initial amount),"Table 3, fragrance TAK in EdT1, 480 min, 32°C",100%
same,amount of fragrance ingredient retained on blotter (percentage of the initial amount),"Table 3, fragrance TAK in EdT1 or C1, T0, set at 100% (normalisation)",100%
same,amount of fragrance ingredient retained on blotter (percentage of the initial amount),"Table 4, fragrance TAK in C2, 15 min, 32°C",97%
same,amount of fragrance ingredient retained on blotter (percentage of the initial amount),"Table 4, fragrance TAK in C2, 480 min, 32°C",77%
same,amount of fragrance ingredient retained on blotter (percentage of the initial amount),"Table 4, fragrance TAK in EdT1, 15 min, 32°C",87%
same,amount of fragrance ingredient retained on blotter (percentage of the initial amount),"Table 4, fragrance TAK in EdT1, 480 min, 32°C",73%
same,amount of fragrance ingredient retained on blotter (percentage of the initial amount),"Table 4, fragrance TAK in EdT1 or C2, T0, set at 100% (normalisation)",100%
same,amount of fragrance ingredient retained on blotter (percentage of the initial amount),"Table 5, fragrance TAK in C3, 15 min, 32°C",80%
same,amount of fragrance ingredient retained on blotter (percentage of the initial amount),"Table 5, fragrance TAK in C3, 60 min, 32°C",93%
same,amount of fragrance ingredient retained on blotter (percentage of the initial amount),"Table 5, fragrance TAK in C3, 120 min, 32°C",93%
same,amount of fragrance ingredient retained on blotter (percentage of the initial amount),"Table 5, fragrance TAK in C3, 240 min, 32°C",100%
same,amount of fragrance ingredient retained on blotter (percentage of the initial amount),"Table 5, fragrance TAK in C3, 480 min, 32°C",82%
same,amount of fragrance ingredient retained on blotter (percentage of the initial amount),"Table 5, fragrance TAK in C3, 1440 min, 32°C",96%
same,amount of fragrance ingredient retained on blotter (percentage of the initial amount),"Table 5, fragrance TAK in EdT1, 15 min, 32°C",88%
same,amount of fragrance ingredient retained on blotter (percentage of the initial amount),"Table 5, fragrance TAK in EdT1, 60 min, 32°C",85%
same,amount of fragrance ingredient retained on blotter (percentage of the initial amount),"Table 5, fragrance TAK in EdT1, 120 min, 32°C",90%
same,amount of fragrance ingredient retained on blotter (percentage of the initial amount),"Table 5, fragrance TAK in EdT1, 240 min, 32°C",98%
same,amount of fragrance ingredient retained on blotter (percentage of the initial amount),"Table 5, fragrance TAK in EdT1, 480 min, 32°C",100%
same,amount of fragrance ingredient retained on blotter (percentage of the initial amount),"Table 5, fragrance TAK in EdT1, 1440 min, 32°C",85%
same,amount of fragrance ingredient retained on blotter (percentage of the initial amount),"Table 5, fragrance TAK in EdT1 or C3, T0, set at 100% (normalisation)",100%
same,amount of fragrance ingredient retained on blotter (percentage of the initial amount),"Table 6, fragrance TAK in C4, 15 min, 32°C",100%
same,amount of fragrance ingredient retained on blotter (percentage of the initial amount),"Table 6, fragrance TAK in C4, 60 min, 32°C",93%
same,amount of fragrance ingredient retained on blotter (percentage of the initial amount),"Table 6, fragrance TAK in C4, 120 min, 32°C",96%
same,amount of fragrance ingredient retained on blotter (percentage of the initial amount),"Table 6, fragrance TAK in C4, 240 min, 32°C",100%
same,amount of fragrance ingredient retained on blotter (percentage of the initial amount),"Table 6, fragrance TAK in C4, 480 min, 32°C",100%
same,amount of fragrance ingredient retained on blotter (percentage of the initial amount),"Table 6, fragrance TAK in EdT1, 15 min, 32°C",88%
same,amount of fragrance ingredient retained on blotter (percentage of the initial amount),"Table 6, fragrance TAK in EdT1, 60 min, 32°C",85%
same,amount of fragrance ingredient retained on blotter (percentage of the initial amount),"Table 6, fragrance TAK in EdT1, 120 min, 32°C",90%
same,amount of fragrance ingredient retained on blotter (percentage of the initial amount),"Table 6, fragrance TAK in EdT1, 240 min, 32°C",98%
same,amount of fragrance ingredient retained on blotter (percentage of the initial amount),"Table 6, fragrance TAK in EdT1, 480 min, 32°C",100%
same,amount of fragrance ingredient retained on blotter (percentage of the initial amount),"Table 6, fragrance TAK in EdT1 or C4, T0, set at 100% (normalisation)",100%
